Experimental data published in US7678918B2, “Intermediates for imidazonaphthyridines” (3M Innovative Properties Company, priority 1997, dated 2010).

Columns and labels:
[1] = tested on: IFN; assay: Cytokine Induction in Human Cells: interferon (IFN) secreted by PBMCs, A549/encephalomyocarditis bioassay; type: cell-based; settings: 18 to 24 hours; note: call rule not given here
In short: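 Human PBMCs from healthy donors at 1.5-2×10^6 cells/mL in RPMI with 10% FBS, exposed to compounds (typically 0.1 to 100 μM, ≤1% DMSO) for 18 to 24 h at 37° C. Secreted IFN measured by A549/encephalomyocarditis virus cytopathic-effect bioassay, in alpha reference units/mL against NIH human leukocyte IFN standard.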

[2] = tested on: TNF; assay: Cytokine Induction in Human Cells: tumor necrosis factor (TNF) secreted by PBMCs, ELISA; type: cell-based; settings: 18 to 24 hours; note: call rule not given here
In short: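 Human donor PBMCs at 1.5-2×10^6 cells/mL in RPMI with 10% FBS were exposed to compound, generally at 0.1 to 100 μM (≤1% DMSO final), for 18 to 24 h at 37 °C. Secreted TNF in supernatant was measured by ELISA and reported as pg/mL.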

[3] = tested on: interferon α; assay: Interferon (α) Induction in Human Cells (PBM's, 48 hours, A549 bioassay); type: cell-based; parameters: key: +: indicates that the compound induced interferon α at that particular concentration; −: indicates that the compound did not induce interferon α at that particular concentration; ±: indicates that the results were equivocal at that particular concentration; settings: 48 hours incubation
Experimental: An in vitro human blood cell system was used to assess interferon induction by compounds of the invention. Activity is based on the measurement of interferon secreted into culture media. Interferon is measured by bioassay.
Whole blood was collected by venipuncture into EDTA vacutainer tubes. Peripheral blood mononuclear cells (PBM's) were separated from whole blood by using either LeucoPREP™ Brand Cell Separation Tubes (available from Becton Dickinson) or Ficoll-Paque® solution (available from Pharmacia LKB Biotechnology Inc, Piscataway, N.J.). The PBM's were suspended at 1×10^6/mL in RPMI 1640 media (available from GIBCO, Grand Island, N.Y.) containing 25 mM HEPES (N-2-hydroxyethylpiperazine-N′-2-ethanesulfonic acid) and L-glutamine (1% penicillin-streptomycin solution added) with 10% heat inactivated (56° C. for 30 minutes) autologous serum added. 200 μL portions of PBM suspension were added to 96 well (flat bottom) MicroTest III sterile tissue culture plates.
The compounds were solubilized in ethanol, dimethyl sulfoxide or tissue culture water then diluted with tissue culture water, 0.01N sodium hydroxide or 0.01N hydrochloric acid (The choice of solvent will depend on the chemical characteristics of the compound being tested.). Ethanol or DMSO concentration should not exceed a final concentration of 1% for addition to the culture wells. Compounds were initially tested in a concentration range of from about 0.1 μg/mL to about 5 μg/mL. Compounds which show induction at a concentration of 0.5 μg/mL were then tested in a wider concentration range.
The solution of test compound was added in a volume (less than or equal to 50 μL) to the wells containing 200 μL of diluted whole blood or of PBM's in media. Solvent and/or media was added to control wells (wells with no test compound) and as needed to adjust the final volume of each well to 250 μL. The plates were covered with plastic lids, vortexed gently and then incubated for 48 hours at 37° C. with a 5% carbon dioxide atmosphere.
Following incubation, the plates were covered with parafilm and then centrifuged at 1000 rpm for 10 to 15 minutes at 4° C. in a Damon IEC Model CRU-5000 centrifuge. Media (about 200 μL) was removed from 4 to 8 wells and pooled into 2 mL sterile freezing vials. Samples were maintained at −70° C. until analysis.
Interferon was determined by bioassay using A549 human lung carcinoma cells challenged with encephalomyocarditis. The details of the bioassay method have been described by G. L. Brennan and L. H. Kronenberg in “Automated Bioassay of Interferons in Micro-test Plates”, Biotechniques, June/July 78, 1983, incorporated herein by reference. Briefly stated the method is as follows: interferon dilutions and A549 cells are incubated at 37° C. for 12 to 24 hours. The incubated cells are infected with an inoculum of encephalomyocarditis virus. The infected cells are incubated for an additional period at 37° C. before quantifying for viral cytopathic effect. The viral cytopathic effect is quantified by staining followed by spectrophotometric absorbance measurements. Results are expressed as alpha reference units/mL based on the value obtained for NIH HU IF-L standard. The interferon was identified as essentially all interferon alpha by testing in checkerboard neutralization assays against rabbit anti-human interferon (beta) and goat anti-human interferon (alpha) using A549 cell monolayers challenged with encephalomyocarditis virus.

Structure (SMILES)	IFN induction ([1]; Dose Concentration 1.0 μM)	IFN induction ([1]; Dose Concentration 10.0 μM)	IFN induction ([1]; Dose Concentration 100.0 μM)	TNF induction ([2]; Dose Concentration 1.0 μM)	TNF induction ([2]; Dose Concentration 10.0 μM)	TNF induction ([2]; Dose Concentration 100.0 μM)	Interferon (α) Induction in Human Cells ([3]; Dose Concentration 0.01 μg/mL)	Interferon (α) Induction in Human Cells ([3]; Dose Concentration 0.05 μg/mL)	Interferon (α) Induction in Human Cells ([3]; Dose Concentration 0.10 μg/mL)	Interferon (α) Induction in Human Cells ([3]; Dose Concentration 0.50 μg/mL)	Interferon (α) Induction in Human Cells ([3]; Dose Concentration 1.0 μg/mL)	Interferon (α) Induction in Human Cells ([3]; Dose Concentration 5.0 μg/mL)	Interferon (α) Induction in Human Cells ([3]; Dose Concentration 10.0 μg/mL)	Interferon (α) Induction in Human Cells ([3]; Dose Concentration 25.0 μg/mL)	melting point	Interferon (α) Induction in Human Cells ([3]; Dose Concentration 50.0 μg/mL)	IFN induction ([1]; Dose Concentration 0.1 μM)	TNF induction ([2]; Dose Concentration 0.1 μM)
CCCCc1nc2c(N)nc3c(c2n1CC(C)C)CCNC3 [Example 28, 2-Butyl-6,7,8,9-tetrahydro-1-(2-methylpropyl)-1H-imidazo[4,5-c][1,7]naphthyridin-4-amine]	+	+	+	−	+	+	−	±	+	+	+	+	+	+	164 to 166 °C			
CC(C)Cn1cnc2c(N)nc3cccnc3c21 [Example 32, 1-(2-Methylpropyl)-1H-imidazo[4,5-c][1,5]naphthyridin-4-amine]	+	+	+	−	−	−	−	−	−	−	+	+	+	+	230 to 231.5 °C	+		
CC(C)Cn1cnc2c(N)nc3c(c21)CCCN3 [Example 10, 6,7,8,9-Tetrahydro-1-(2-methylpropyl)-1H-imidazo[4,5-c][1,8]naphthyridin-4-amine]	+	+	+	−	−	+	−	−	−	−	+	+	+	+	231 to 233 °C	+	+	−
Cc1nc2c(N)nc3cnccc3c2n1CC(C)C [Example 25, 2-Methyl-1-(2-methylpropyl)-1H-imidazo[4,5-c][1,7]naphthyridin-4-amine]	−	+	+	−	±	−	−	−	−	−	−	+	+	+	322 to 324 °C			
Cc1nc2c(N)nc3c(c2n1CC(C)C)CCNC3 [Example 26, 6,7,8,9-Tetrahydro-2-methyl-1-(2-methylpropyl)-1H-imidazo[4,5-c][1,7]naphthyridin-4-amine]	+	−	+	+	±	−	−	−	−	−	−	±	+	+	226 to 230 °C			
CC(C)Cn1cnc2c(N)nc3cnccc3c21 [Example 22, 1-(2-Methylpropyl)-1H-imidazo[4,5-c][1,7]naphthyridin-4-amine]	−	−	−	−	±	+					−	−	−	+	306 to 307 °C			
CC(C)Cn1cnc2c(N)nc3c(c21)CCNC3 [Example 23, 6,7,8,9-Tetrahydro-1-(2-methylpropyl)-1H-imidazo[4,5-c][1,7]naphthyridin-4-amine]	+	+	−	−	±	−					−	−	−	−	220 to 223 °C			
CC(C)Cn1cnc2c(N)nc3c(c21)NCCC3 [Example 33, 6,7,8,9-Tetrahydro-1-(2-methylpropyl)-1H-imidazo[4,5-c][1,5]naphthyridin-4-amine]	+	+	+	−	−	−	−	−	−	−	−	+	+	+	222 to 226 °C	+		
CCCCc1nc2c(N)nc3cnccc3c2n1CC(C)C [Example 27, 2-Butyl-1-(2-methylpropyl)-1H-imidazo[4,5-c][1,7]naphthyridin-4-amine]	+	+	+	+	+	+	−	−	+	+	+	+	+	+	213 to 214 °C			
